Experimental data from ChEMBL document CHEMBL3885881, “DrugMatrix”.

Species: Rattus norvegicus
Test: DrugMatrix - Regimen: Daily Repeat
Assay type: toxicity, organism-based, Sprague-Dawley
Set-up: regimen Daily Repeat, gender Male, age 6-8 weeks
Conditions: in vivo, iv, vehicle 100 % SALINE; for ABSOLUTE BASOPHIL / ABSOLUTE EOSINOPHIL / ABSOLUTE LYMPHOCYTE / ABSOLUTE MONOCYTE / ABSOLUTE SEGMENTED NEUTROPHIL / BASOPHIL / EOSINOPHIL / ERYTHROCYTE COUNT / HEMATOCRIT / HEMOGLOBIN / LEUKOCYTE COUNT / LYMPHOCYTE / MEAN CORPUSCULAR HEMOGLOBIN / MEAN CORPUSCULAR HEMOGLOBIN CONCENTRATION / MEAN CORPUSCULAR VOLUME / MONOCYTE / NEUTROPHIL / NUCLEATED RED BLOOD CELLS / PLATELET COUNT: tissue Blood; for ALANINE AMINOTRANSFERASE / ALBUMIN / ALKALINE PHOSPHATASE / ASPARTATE AMINOTRANSFERASE / BLOOD UREA NITROGEN / CARBON DIOXIDE / CHLORIDE / CHOLESTEROL / CREATINE PHOSPHOKINASE / CREATININE / GLUCOSE / LACTATE DEHYDROGENASE / LIPASE / PHOSPHORUS / POTASSIUM / SODIUM / TOTAL BILIRUBIN / TOTAL PROTEIN / URIC ACID: tissue Plasma
[1] = 2 mg/kg, 72 h, dose level Low, time 3 day
[2] = 2 mg/kg, 120 h, dose level Low, time 5 day
[3] = 20 mg/kg, 72 h, dose level High, time 3 day
[4] = 20 mg/kg, 120 h, dose level High, time 5 day

CCN1CC(CCN2CCOCC2)C(c2ccccc2)(c2ccccc2)C1=O (configuration not stated) [DOXAPRAM]
ABSOLUTE BASOPHIL [1]: 0 CELLS/uL
ABSOLUTE EOSINOPHIL [1]: 0 CELLS/uL
ABSOLUTE LYMPHOCYTE [1]: 13662.33 CELLS/uL
ABSOLUTE MONOCYTE [1]: 351.67 CELLS/uL
ABSOLUTE SEGMENTED NEUTROPHIL [1]: 2319.33 CELLS/uL
BASOPHIL [1]: 0%
EOSINOPHIL [1]: 0%
ERYTHROCYTE COUNT [1]: 5.67 x10E6/uL
HEMATOCRIT [1]: 35.7%
HEMOGLOBIN [1]: 14.2 G/DL
LEUKOCYTE COUNT [1]: 16.33 x10E3/uL
LYMPHOCYTE [1]: 84%
MEAN CORPUSCULAR HEMOGLOBIN [1]: 25.1 pg
MEAN CORPUSCULAR HEMOGLOBIN CONCENTRATION [1]: 39.77 G/DL
MEAN CORPUSCULAR VOLUME [1]: 63.03 fL
MONOCYTE [1]: 2%
NEUTROPHIL [1]: 14%
NUCLEATED RED BLOOD CELLS [1]: 0 /100WBC
PLATELET COUNT [1]: 1174 x10E3/uL
ALANINE AMINOTRANSFERASE [1]: 72.33 u/L
ALBUMIN [1]: 3.93 G/DL
ALKALINE PHOSPHATASE [1]: 296.67 u/L
ASPARTATE AMINOTRANSFERASE [1]: 101 u/L
BLOOD UREA NITROGEN [1]: 17 mg/dL
CARBON DIOXIDE [1]: 26.33 mmol/L
CHLORIDE [1]: 101.33 MEQ/L
CHOLESTEROL [1]: 83.33 mg/dL
CREATINE PHOSPHOKINASE [1]: 298.67 u/L
CREATININE [1]: 0.15 mg/dL
GLUCOSE [1]: 149 mg/dL
LACTATE DEHYDROGENASE [1]: 372.67 u/L
LIPASE [1]: 8 u/L
PHOSPHORUS [1]: 12.83 mg/dL
POTASSIUM [1]: 7.17 MEQ/L
SODIUM [1]: 146.3 MEQ/L
TOTAL BILIRUBIN [1]: 0.17 mg/dL
TOTAL PROTEIN [1]: 6.1 G/DL
URIC ACID [1]: 1.53 mg/dL
ABSOLUTE BASOPHIL [2]: 0 CELLS/uL
ABSOLUTE EOSINOPHIL [2]: 0 CELLS/uL
ABSOLUTE LYMPHOCYTE [2]: 13405 CELLS/uL
ABSOLUTE MONOCYTE [2]: 468.67 CELLS/uL
ABSOLUTE SEGMENTED NEUTROPHIL [2]: 2059.67 CELLS/uL
BASOPHIL [2]: 0%
EOSINOPHIL [2]: 0%
ERYTHROCYTE COUNT [2]: 6.04 x10E6/uL
HEMATOCRIT [2]: 37.2%
HEMOGLOBIN [2]: 14.8 G/DL
LEUKOCYTE COUNT [2]: 15.93 x10E3/uL
LYMPHOCYTE [2]: 84%
MEAN CORPUSCULAR HEMOGLOBIN [2]: 24.5 pg
MEAN CORPUSCULAR HEMOGLOBIN CONCENTRATION [2]: 39.8 G/DL
MEAN CORPUSCULAR VOLUME [2]: 61.53 fL
MONOCYTE [2]: 3%
NEUTROPHIL [2]: 13%
NUCLEATED RED BLOOD CELLS [2]: 0.67 /100WBC
PLATELET COUNT [2]: 1035 x10E3/uL
ALANINE AMINOTRANSFERASE [2]: 97.67 u/L
ALBUMIN [2]: 3.97 G/DL
ALKALINE PHOSPHATASE [2]: 400.33 u/L
ASPARTATE AMINOTRANSFERASE [2]: 101.33 u/L
BLOOD UREA NITROGEN [2]: 15.33 mg/dL
CARBON DIOXIDE [2]: 26.33 mmol/L
CHLORIDE [2]: 101.33 MEQ/L
CHOLESTEROL [2]: 65.33 mg/dL
CREATINE PHOSPHOKINASE [2]: 230 u/L
CREATININE [2]: 0.14 mg/dL
GLUCOSE [2]: 159.33 mg/dL
LACTATE DEHYDROGENASE [2]: 100.67 u/L
LIPASE [2]: 8.33 u/L
PHOSPHORUS [2]: 12.7 mg/dL
POTASSIUM [2]: 6.47 MEQ/L
SODIUM [2]: 144.37 MEQ/L
TOTAL BILIRUBIN [2]: 0.13 mg/dL
TOTAL PROTEIN [2]: 6.17 G/DL
URIC ACID [2]: 1.6 mg/dL
ABSOLUTE BASOPHIL [3]: 0 CELLS/uL
ABSOLUTE EOSINOPHIL [3]: 173.33 CELLS/uL
ABSOLUTE LYMPHOCYTE [3]: 15104 CELLS/uL
ABSOLUTE MONOCYTE [3]: 284 CELLS/uL
ABSOLUTE SEGMENTED NEUTROPHIL [3]: 1672 CELLS/uL
BASOPHIL [3]: 0%
EOSINOPHIL [3]: 1%
ERYTHROCYTE COUNT [3]: 5.38 x10E6/uL
HEMATOCRIT [3]: 34.17%
HEMOGLOBIN [3]: 13.5 G/DL
LEUKOCYTE COUNT [3]: 17.23 x10E3/uL
LYMPHOCYTE [3]: 87.67%
MEAN CORPUSCULAR HEMOGLOBIN [3]: 25.13 pg
MEAN CORPUSCULAR HEMOGLOBIN CONCENTRATION [3]: 39.53 G/DL
MEAN CORPUSCULAR VOLUME [3]: 63.6 fL
MONOCYTE [3]: 1.67%
NEUTROPHIL [3]: 9.67%
NUCLEATED RED BLOOD CELLS [3]: 0 /100WBC
PLATELET COUNT [3]: 1285.33 x10E3/uL
ALANINE AMINOTRANSFERASE [3]: 51.67 u/L
ALBUMIN [3]: 4.33 G/DL
ALKALINE PHOSPHATASE [3]: 402.67 u/L
ASPARTATE AMINOTRANSFERASE [3]: 102.67 u/L
BLOOD UREA NITROGEN [3]: 15 mg/dL
CARBON DIOXIDE [3]: 21.67 mmol/L
CHLORIDE [3]: 102 MEQ/L
CHOLESTEROL [3]: 79 mg/dL
CREATINE PHOSPHOKINASE [3]: 445.33 u/L
CREATININE [3]: 0.15 mg/dL
GLUCOSE [3]: 149.33 mg/dL
LACTATE DEHYDROGENASE [3]: 669.33 u/L
LIPASE [3]: 9 u/L
PHOSPHORUS [3]: 13.03 mg/dL
POTASSIUM [3]: 6.9 MEQ/L
SODIUM [3]: 143.67 MEQ/L
TOTAL BILIRUBIN [3]: 0.17 mg/dL
TOTAL PROTEIN [3]: 5.93 G/DL
URIC ACID [3]: 1.7 mg/dL
ABSOLUTE BASOPHIL [4]: 0 CELLS/uL
ABSOLUTE EOSINOPHIL [4]: 118.67 CELLS/uL
ABSOLUTE LYMPHOCYTE [4]: 15901.33 CELLS/uL
ABSOLUTE MONOCYTE [4]: 415.33 CELLS/uL
ABSOLUTE SEGMENTED NEUTROPHIL [4]: 1364.67 CELLS/uL
BASOPHIL [4]: 0%
EOSINOPHIL [4]: 0.67%
ERYTHROCYTE COUNT [4]: 5.51 x10E6/uL
HEMATOCRIT [4]: 34.63%
HEMOGLOBIN [4]: 13.57 G/DL
LEUKOCYTE COUNT [4]: 17.8 x10E3/uL
LYMPHOCYTE [4]: 89.33%
MEAN CORPUSCULAR HEMOGLOBIN [4]: 24.63 pg
MEAN CORPUSCULAR HEMOGLOBIN CONCENTRATION [4]: 39.17 G/DL
MEAN CORPUSCULAR VOLUME [4]: 62.8 fL
MONOCYTE [4]: 2.33%
NEUTROPHIL [4]: 7.67%
NUCLEATED RED BLOOD CELLS [4]: 0 /100WBC
PLATELET COUNT [4]: 1309.33 x10E3/uL
ALANINE AMINOTRANSFERASE [4]: 57 u/L
ALBUMIN [4]: 4.33 G/DL
ALKALINE PHOSPHATASE [4]: 365.67 u/L
ASPARTATE AMINOTRANSFERASE [4]: 95.67 u/L
BLOOD UREA NITROGEN [4]: 16 mg/dL
CARBON DIOXIDE [4]: 23.33 mmol/L
CHLORIDE [4]: 102.67 MEQ/L
CHOLESTEROL [4]: 66.33 mg/dL
CREATINE PHOSPHOKINASE [4]: 259 u/L
CREATININE [4]: 0.18 mg/dL
GLUCOSE [4]: 166 mg/dL
LACTATE DEHYDROGENASE [4]: 229 u/L
LIPASE [4]: 8.33 u/L
PHOSPHORUS [4]: 13.17 mg/dL
POTASSIUM [4]: 6.59 MEQ/L
SODIUM [4]: 144.97 MEQ/L
TOTAL BILIRUBIN [4]: 0.23 mg/dL
TOTAL PROTEIN [4]: 5.93 G/DL
URIC ACID [4]: 2.2 mg/dL
